Data published in patent US8173131B2, “Compositions and methods for modulating RSV infection and immunity” (PerkinElmer Health Sciences, Inc., priority 2000, dated 2012).

Key:
RSV = RSV plaque reduction assay on Vero cells (Example 1); format: cell-based, RSV/A2
Protocol: Dilutions of Fkn (R&D systems), SDF-1 α (R&D systems), G glycoprotein, heparin (Sigma), G glycoprotein peptides and anti-CX3CR1 antibody were made in serum-free Dulbecco's Modified Eagle's Media (DMEM; GIBCO) containing 1% BSA (Sigma) and preincubated with the Vero cells for 1 h at 37° C. 50 μg of anti-CX3CR1 antibody or heat-inactivated (56° C., 30 min) normal rabbit sera (control) were used in all experiments. […] Dilutions of RSV were made in serum-free DMEM (GIBCO) and added to pretreated Vero cells for 2 h at 37° C. Following virus infection, DMEM (GIBCO) containing 10% FBS (Hyclone, Logan, Utah) was added to the wells. Plaques were enumerated using immunostaining for F and G glycoproteins using biotinylated monoclonal antibodies 131-2A (anti-F glycoprotein) and 130-2G (anti-G glycoprotein) as described^45.
RSV plaque reduction following treatment with G glycoprotein, Fkn, G glycoprotein peptides, anti-CX3CR1 antibody, SDF-1-α and/or heparin as described in Methods. Percent inhibition was determined from the mean plaque forming units (pfu) of treated Vero cells over saline-treated Vero cells using a dilution of RSV that would produce 40-80 pfu. p-values were determined using unpaired two-tailed analysis where p<0.05 is significant. The concentration of G glycoprotein was estimated using a molecular weight of 90 kD.

CD3+ BAL cells = experiment: Intracellular cytokine expression by CD3+ T cells following in vivo peptide treatment; set-up: species or system BALB/c mice
Protocol: (§1) On day −1, prior to RSV infection, mice were i.p. treated (0.1 ml/mouse) with 100 μM of G glycoprotein peptides RT33 (CWAIC) (SEQ ID NO: 12), RT34 (lacks the CX3C motif) or peptides with changes in the CX3C motif (Δ+1, Δ−1, EYp1). Control mice were treated with PBS containing a similar dilution of DMSO used to solubilize the peptides.
Intracellular cytokine staining was modified for microculture staining as described (55, 57). Briefly, BAL cells were incubated in PBS containing Golgi Stop (Pharmingen) for 3 h at 37° C. to allow for accumulation of intracellular cytokines. The cells were washed in PBS containing 1% bovine serum albumin, blocked with 10% normal mouse sera diluted in PBS containing 1% bovine serum albumin, and stained (4° C., 30 min) with an appropriate dilution of anti-CD3 antibody, fixed and permeabilized in Cytofix/Cytoperm (Pharmingen). The cells were washed in Cytofix/Cytoperm buffer and stained (4° C., 30 min) with appropriate dilutions of anti-IL-2 (JES6-5H4), anti-IL-4 (BVD4-1D11), anti-IL-5 (TRFK5), IL-10 (JES3-16E3), anti-IFNγ (XMG1.2), or anti-TNFα (MP6-XT22) antibodies (Pharmingen) diluted in Cytofix/Cytoperm. Extra- and intracellular staining was analyzed by flow cytometry using a FACScan and Cell Quest software (Becton Dickinson, San Diego, Calif.). Total cytokine expression by CD3+ T cells was determined from the percent cytokine expression of CD3+ T cells and total number of cells recovered. The total number of CD3+ BAL cells expressing a particular cytokine was determined by multiplying the total number of BAL cells by the percent CD3+ cells expressing that particular cytokine.

[1] = system: bronchoalveolar leukocytes (BAL); experiment: BAL cell infiltration and cell types in RSV-infected mice following in vivo peptide treatment; set-up: species or system BALB/c mice; conditions: in words
Source text: Total pulmonary leukocyte trafficking following treatment of mice with peptides containing a CX3C motif (RT33 and EYp1) (A) or peptides without a CX3C motif (RT34, Δ+1, Δ−1)(B).
(§2) Flow cytometry results following treatment (d−1) of mice with PBS, RT33, RT34, Δ+1, Δ−1 and EYp1 peptides (100 μm). BAL cells were stained with antibodies against B220^+ (A, D, G), CD3^+ (B, E, H) and CD11b^+ (C, F, I) cells. Data is expressed as the total BAL cells/lung±SEM at days 3, 5, 7 and 14 post-infection. A representative experiment from 3 independent experiments is shown.
as §2, with “NK (DX5^+)” for “B220^+”, “(A, C, E) and PMN (RB6-8C5^+) cells (B,” for “(A,”, “F).” for “G), CD3^+ (B, E, H) and CD11b^+ (C, F, I) cells.”
as §1
Mice were anesthetized with Avertin and exsanguinated by severing the right caudal artery. Bronchoalveolar leukocyte (BAL) cells were harvested by lung lavage with PBS containing 1% bovine serum albumin (BSA, Sigma). The procedure used for extracellular staining of BAL cells was modified for microculture staining as described (55,57). Briefly, BAL cells were washed in Dulbecco's PBS (GIBCO) containing 1% bovine serum albumin (Sigma), blocked with 10% normal mouse sera diluted in PBS containing 1% bovine serum albumin, and then stained (4° C., 30 min) with an appropriate dilution of FITC-conjugated or PE-conjugated anti-CD3ε (145-2C11), anti-CD45R/B220 (RA3-6B2), anti-CD8 (Ly-2), anti-neutrophil (PMN) (RB6-8C5), anti-CD11b (M1/70) and isotype antibody controls (all from Pharmingen, San Diego, Calif.).

[2] = biological target: T1, Fkn binding to 293-CX3CR1 cells (Homo sapiens, UniProt P49238); conditions: chemokine 10 μM
T1 construct: host or cells: HEK 293 cells stably transfected with CX3CR1

[3] = system: G glycoprotein binding to 293-CX3CR1 cells; set-up: species or system human; conditions: chemokine 10 μM
Protocol: All binding studies were done on ice and either G glycoprotein or human Fkn (R&D Diagnostics, Minneapolis, Minn.) were diluted between 1 nM-100 nM in PBS (GIBCO) containing 1% bovine serum albumin (Sigma) and incubated with the 293-CX3CR1 cells or 293 control cells for 30 min at 4° C. […] Without washing, 100 pM of either Fkn or G glycoprotein was added and incubated for 30 min at 4° C. The cells were washed, blocked with FcγRIII blocking antibody (HB197) for 30 min on ice, washed and stained as appropriate with either an anti-G glycoprotein monoclonal antibody cocktail (132-5B, 132-5G, 130-2G, 232-IF) or a biotinylated anti-G glycoprotein monoclonal antibody cocktail (130-2G, 131-2G) or anti-Fkn monoclonal antibody (51637.11; R&D Diagnostics). Concentrations of 1 μg of anti-G glycoprotein monoclonal antibody (131-2G)^34, rabbit anti-CX3CR1 sera^33, and anti-CX3CR1 monoclonal antibody containing 10 μg/ml heparin were used in all experiments. […] Staining was detected with absorbed FITC-goat anti-mouse (H & L chain) monoclonal antibody (PharMingen, San Diego, Calif.) or streptavidin-PE (PharMingen) using flow cytometry (FACScan, Becton-Dickinson, Mountain View, Calif.). A 76 amino acid ^125I-Fkn polypeptide comprising the […] (NEN, Boston, Mass.) was used in radioligand studies^33. As a control, the void volume following purified G glycoprotein passaged over an anti-G glycoprotein antibody (130-2G) affinity column was examined by flow cytometry for binding to either 293 or 293-CX3CR1 cells.
For peptide inhibition studies, a series of G glycoprotein peptides were identified in the amino acid sequence of the A2 strain of RSV (GENBANK, attachment protein locus 1912305, Table 4). The peptides were synthesized using a simultaneous, multiple solid-phase peptide synthesis method on a peptide synthesizer (Perkin-Elmer Applied Biosystems, Berkeley, Calif.), and tested for homogeneity by reverse-phase liquid chromatography and capillary electrophoresis (www.biotech.cdc.gov/protein/methods). Inhibition assays were performed as described for the binding studies above.
To determine if G glycoprotein bound 293-CX3CR1 cells via CX3CR1, the ability of four reagents (anti-CX3CR1 rabbit antiserum, anti-CX3CR1 monoclonal antibody (2A9-1), Fkn and a 76 amino acid 125-I-Fkn polypeptide containing the CX3C domain) that bind to CX3CR1 to block G glycoprotein binding to 293-CX3CR1 cells was examined. In addition, to determine if binding of G glycoprotein to 293-CX3CR1 cells was dependent upon the CX3C motif, G glycoprotein peptides with a single residue insertion (Δ+1) or deletion (Δ−1) in the CX3C motif and also peptides that lacked or included the CX3C motif (Table 4) were generated. This panel of peptides was analyzed for their ability to block G glycoprotein or Fkn binding to 293-CX3CR1 cells.
Inhibition of Fkn and G glycoprotein binding to 293-CX3CR1 cells by treatment with monoclonal antibodies to G glycoprotein or CX3CR1, or treatment with G glycoprotein, Fkn, or G glycoprotein peptides in the presence or absence of heparin as described in Methods. […] The concentration of G glycoprotein was estimated using a molecular weight of 90 kD.

T1 sequence (P49238 whole entry): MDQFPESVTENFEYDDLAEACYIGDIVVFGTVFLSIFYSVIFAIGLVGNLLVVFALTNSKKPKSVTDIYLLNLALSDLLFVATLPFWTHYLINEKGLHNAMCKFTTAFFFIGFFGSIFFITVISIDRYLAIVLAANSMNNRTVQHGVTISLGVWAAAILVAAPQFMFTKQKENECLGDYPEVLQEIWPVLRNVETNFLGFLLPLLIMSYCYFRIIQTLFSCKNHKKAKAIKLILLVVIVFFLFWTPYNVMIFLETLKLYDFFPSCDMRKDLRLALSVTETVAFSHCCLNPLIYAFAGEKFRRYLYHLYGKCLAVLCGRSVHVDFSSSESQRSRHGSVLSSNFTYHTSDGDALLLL

## SDF-1α [reference compound]
RSV; 1 nM
  plaque inhibition (%): 5%
RSV; 10 nM
  plaque inhibition (%): 7%
RSV; 100 nM
  plaque inhibition (%): 12%
RSV; in words
  effect on RSV plaque formation / plaque number: no effect on RSV plaque formation was detected

## TCAAACKRIPNKK [EYp1, 13-mer G glycoprotein peptide variant of RT33 with CAAAC motif]
CD3+ BAL cells; day 3 pi
  Total IC cytokine Expressing CD3^+ BAL cells (×10^3) ± SEM: IFNγ: 32 ± 7.3 ×10^3
  Total IC cytokine Expressing CD3^+ BAL cells (×10^3) ± SEM: IL-4: 32 ± 7.2 ×10^3
  Total IC cytokine Expressing CD3^+ BAL cells (×10^3) ± SEM: IL-5: 34 ± 7.7 ×10^3
  Total IC cytokine Expressing CD3^+ BAL cells (×10^3) ± SEM: IL-6: 35 ± 8.0 ×10^3
  Total IC cytokine Expressing CD3^+ BAL cells (×10^3) ± SEM: TNFα: 36 ± 8.1 ×10^3
CD3+ BAL cells; day 3 pi, peptide 24 hours prior to RSV infection
  Total IC cytokine Expressing CD3^+ BAL cells (×10^3) ± SEM: IL-2: 26 ± 6.0 ×10^3
CD3+ BAL cells; day 5 pi
  Total IC cytokine Expressing CD3^+ BAL cells (×10^3) ± SEM: IFNγ: 26 ± 5.4 ×10^3
  Total IC cytokine Expressing CD3^+ BAL cells (×10^3) ± SEM: IL-2: 17 ± 3.6 ×10^3
  Total IC cytokine Expressing CD3^+ BAL cells (×10^3) ± SEM: IL-4: 28 ± 5.6 ×10^3
  Total IC cytokine Expressing CD3^+ BAL cells (×10^3) ± SEM: IL-5: 32 ± 6.5 ×10^3
  Total IC cytokine Expressing CD3^+ BAL cells (×10^3) ± SEM: IL-6: 19 ± 7.4 ×10^3
  Total IC cytokine Expressing CD3^+ BAL cells (×10^3) ± SEM: TNFα: 41 ± 8.4 ×10^3
CD3+ BAL cells; day 7 pi
  Total IC cytokine Expressing CD3^+ BAL cells (×10^3) ± SEM: IFNγ: 18 ± 2.6 ×10^3
  Total IC cytokine Expressing CD3^+ BAL cells (×10^3) ± SEM: IL-2: 7.8 ± 1.1 ×10^3
  Total IC cytokine Expressing CD3^+ BAL cells (×10^3) ± SEM: IL-4: 12 ± 1.6 ×10^3
  Total IC cytokine Expressing CD3^+ BAL cells (×10^3) ± SEM: IL-5: 20 ± 2.8 ×10^3
  Total IC cytokine Expressing CD3^+ BAL cells (×10^3) ± SEM: IL-6: 17 ± 2.4 ×10^3
  Total IC cytokine Expressing CD3^+ BAL cells (×10^3) ± SEM: TNFα: 6.8 ± 2.8 ×10^3
CD3+ BAL cells; day 14 pi
  Total IC cytokine Expressing CD3^+ BAL cells (×10^3) ± SEM: IFNγ: 5.3 ± 0.3 ×10^3
  Total IC cytokine Expressing CD3^+ BAL cells (×10^3) ± SEM: IL-2: 5.1 ± 0.3 ×10^3
  Total IC cytokine Expressing CD3^+ BAL cells (×10^3) ± SEM: IL-4: 5.4 ± 0.3 ×10^3
  Total IC cytokine Expressing CD3^+ BAL cells (×10^3) ± SEM: IL-5: 7.7 ± 0.5 ×10^3
  Total IC cytokine Expressing CD3^+ BAL cells (×10^3) ± SEM: IL-6: 5.0 ± 0.3 ×10^3
  Total IC cytokine Expressing CD3^+ BAL cells (×10^3) ± SEM: TNFα: 6.8 ± 0.5 ×10^3
[1]; day 3 pi
  total BAL numbers compared to mice treated with RT34, Δ−1 or PBS: reduced BAL numbers
[1]; days 3, 5, 7 and 14 pi
  numbers of BAL cell types (B220+, CD3+, CD11b+, NK, PMN): increased numbers of CD3+ cells on days 5 and 7 pi
[1]; from day 3 to day 14 pi
  course of BAL numbers: increased

B1: C10: macrophage inflammatory protein-related protein-1 (C10), chemokine (protein)
chain: GLIQEMEKEDRRYNPPIIHQGFQDTSSDCCFSYATQIPCKRFIYYFPTSGGCIKPGIIFISRRGTQVCADPSDRRVQRCLSTLKQGPRSGNKVIA
[2]
  Range of Inhibition (%) of Fkn binding: 4-8%
[3]
  Range of Inhibition (%) of G glycoprotein binding: 5-8%

B2: KC: growth regulated oncogene-α, KC, chemokine (protein, UniProt P12850 25-96, looked up)
Growth-regulated alpha protein: APIANELRCQCLQTMAGIHLKNIQSLKVLPSGPHCTQTEVIATLKNGREACLDPEAPLVQKIVQKMLKGVPK
[2]
  Range of Inhibition (%) of Fkn binding: 4-6%
[3]
  Range of Inhibition (%) of G glycoprotein binding: 0-6%

B3: MIP-2: chemokine (protein)
chain: AVVASELRCQCLKTLPRVDFKNIQSLSVTPPGPHCAQTEVIATLKGGQKVCLDPEAPLVQKIIQKILNKGKAN
[2]
  Range of Inhibition (%) of Fkn binding: 0-4%
[3]
  Range of Inhibition (%) of G glycoprotein binding: 2-8%

B4: IP-10: chemokine (protein, UniProt P17515 22-98, looked up)
C-X-C motif chemokine 10: IPLARTVRCNCIHIDDGPVRMRAIGKLEIIPASLSCPRVEIIATMKKNDEQRCLNPESKTIKNLMKAFSQKRSKRAP
[2]
  Range of Inhibition (%) of Fkn binding: 0-6%
[3]
  Range of Inhibition (%) of G glycoprotein binding: 0-4%
